Structures can show the parent of a compound that is named as a salt.
Target: T1, sc-urokinase (Homo sapiens, UniProt P00749)
T1 construct: purchased Ribosepharm GmbH, Haan, Germany
Assay: Inhibition of urokinase (chromogenic substrate, Dixon Ki)
Type: biochemical
Settings: Tris buffer pH 8.0, 25° C., substrate Pefachrome UK or Bz-βAla-Gly-Arg-pNA; mean of at least 3 determinations
Procedure: The Ki values were determined according to Dixon by linear regression using a computer program.

| Structure (SMILES) | Ki [nM] |
| --- | --- |
| CCOC(=O)N1CCN(C(=O)C(Cc2cccc(C(=N)N)c2)NS(=O)(=O)c2c(C(C)C)cc(C(C)C)cc2C(C)C)CC1 (centres unmarked) | 540 |
| CCOC(=O)C1CCN(C(=O)C(Cc2cccc(C(=N)N)c2)NS(=O)(=O)c2c(C(C)C)cc(C(C)C)cc2C(C)C)CC1 (centres unmarked) | 720 |
| CC(C)OC(=O)N1CCN(C(=O)C(Cc2cccc(C(=N)N)c2)NS(=O)(=O)c2c(C(C)C)cc(C(C)C)cc2C(C)C)CC1 (centres unmarked) | 790 |
| CC(C)c1cc(C(C)C)c(S(=O)(=O)NC(Cc2cccc(C(=N)N)c2)C(=O)N2CCCC(C(=O)OCc3ccccc3)C2)c(C(C)C)c1 (centres unmarked) | 1200 |
| CC(C)c1cc(C(C)C)c(S(=O)(=O)NC(Cc2cccc(C(=N)N)c2)C(=O)N2CCCC(C(=O)NCc3ccccc3)C2)c(C(C)C)c1 (centres unmarked) | 1500 |
| CC(C)c1cc(C(C)C)c(S(=O)(=O)NC(Cc2cccc(C(=N)N)c2)C(=O)N2CCN(C(=O)OCc3ccccc3)CC2)c(C(C)C)c1 (centres unmarked) | 1900 |
| CC1CCN(C(=O)C(Cc2cccc(C(=N)N)c2)NS(=O)(=O)c2c(C(C)C)cc(C(C)C)cc2C(C)C)CC1 (centres unmarked) | 2200 |
| CC(C)c1cc(C(C)C)c(S(=O)(=O)NC(Cc2cccc(C(=N)N)c2)C(=O)N2CCN(C(=O)N(C)C)CC2)c(C(C)C)c1 (centres unmarked) | 2700 |
| CCOC(=O)C1CCN(C(=O)[C@H](Cc2cccc(C(=N)N)c2)NS(=O)(=O)c2ccc3ccccc3c2)CC1 | 3300 |
| CC(=O)N1CCN(C(=O)C(Cc2cccc(C(=N)N)c2)NS(=O)(=O)c2c(C(C)C)cc(C(C)C)cc2C(C)C)CC1 (centres unmarked) | 3500 |
| N=C(N)c1cccc(C[C@H](NS(=O)(=O)c2ccc3ccccc3c2)C(=O)N2CCC(C(=O)OCc3ccccc3)CC2)c1 | 3900 |
| CC(C)NC(=O)C1CCN(C(=O)C(Cc2cccc(C(=N)N)c2)NS(=O)(=O)c2c(C(C)C)cc(C(C)C)cc2C(C)C)CC1 (centres unmarked) | 4200 |
| CNC(=O)C1CCN(C(=O)C(Cc2cccc(C(=N)N)c2)NS(=O)(=O)c2c(C(C)C)cc(C(C)C)cc2C(C)C)CC1 (centres unmarked) | 4400 |
| CCOC(=O)N1CCN(C(=O)[C@H](Cc2cccc(C(=N)N)c2)NS(=O)(=O)c2c(C(C)C)cc(C(C)C)cc2C(C)C)CC1 [N-α-2,4,6-Triisopropylphenylsulfonyl-(L)-3-amidinophenylalanine-4-ethoxycarbonyl-piperazide hydrochloride] | 490 |

Reference: patent US7745441B1, “Urokinase inhibitors” (Wilex AG, priority 1998, dated 2010)
